Measurements taken from PubChem BioAssay AID1963976 (Molecular Pharmacology Branch, DTP, NCI, 2024).
“And” between values parts separate entries of the source, which are not always exact repeats. Equal entries are not always repeated.

System: 435261-313-R-J1-PDC tumor spheroid viability
Experiment: Anticancer human tumor 435261-313-R-J1-PDC patient-derived colon adenocarcinoma cell line growth inhibition [PI3K]
Settings: spheroids with HUVEC and MSC; for viability, T/C: stronger effect = lower value
Summary of the method: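 Targeted small molecules plus PI3K inhibitors, half-log dose series from Cmax (default top 10 microM), were applied to heterotypic spheroids of cancer cells with HUVEC and MSCs. Viability indicated growth inhibition.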

[1] = curve of first compound, second compound 0.0316 µM
[2] = curve of first compound, second compound 0.1 µM
[3] = curve of first compound, second compound 0.316 µM
[4] = curve of first compound, second compound 1 µM
[5] = curve of first compound, second compound 3.16 µM
[6] = curve of first compound, second compound 10 µM
[7] = second compound 0.0316 µM, first compound 0.0316 µM
[8] = second compound 0.0316 µM, first compound 0.1 µM
[9] = second compound 0.0316 µM, first compound 0.316 µM
[10] = second compound 0.0316 µM, first compound 1 µM
[11] = second compound 0.0316 µM, first compound 3.16 µM
[12] = second compound 0.0316 µM, first compound 10 µM
[13] = second compound 0.1 µM, first compound 0.0316 µM
[14] = second compound 0.1 µM, first compound 0.1 µM
[15] = second compound 0.1 µM, first compound 0.316 µM
[16] = second compound 0.1 µM, first compound 1 µM
[17] = second compound 0.1 µM, first compound 3.16 µM
[18] = second compound 0.1 µM, first compound 10 µM
[19] = second compound 0.316 µM, first compound 0.0316 µM
[20] = second compound 0.316 µM, first compound 0.1 µM
[21] = second compound 0.316 µM, first compound 0.316 µM
[22] = second compound 0.316 µM, first compound 1 µM
[23] = second compound 0.316 µM, first compound 3.16 µM
[24] = second compound 0.316 µM, first compound 10 µM
[25] = second compound 1 µM, first compound 0.0316 µM
[26] = second compound 1 µM, first compound 0.1 µM
[27] = second compound 1 µM, first compound 0.316 µM
[28] = second compound 1 µM, first compound 1 µM
[29] = second compound 1 µM, first compound 3.16 µM
[30] = second compound 1 µM, first compound 10 µM
[31] = second compound 3.16 µM, first compound 0.0316 µM
[32] = second compound 3.16 µM, first compound 0.1 µM
[33] = second compound 3.16 µM, first compound 0.316 µM
[34] = second compound 3.16 µM, first compound 1 µM
[35] = second compound 3.16 µM, first compound 3.16 µM
[36] = second compound 3.16 µM, first compound 10 µM
[37] = second compound 10 µM, first compound 0.0316 µM
[38] = second compound 10 µM, first compound 0.1 µM
[39] = second compound 10 µM, first compound 0.316 µM
[40] = second compound 10 µM, first compound 1 µM
[41] = second compound 10 µM, first compound 3.16 µM
[42] = second compound 10 µM, first compound 10 µM
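Also: spheroids exposed to compounds for 7 days.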

`CNC(=O)c1ccc(N2C(=S)N(c3ccc(C#N)c(C(F)(F)F)c3)C(=O)C2(C)C)cc1F` + Cc1nc(NC(=O)N2CCCC2C(N)=O)sc1-c1ccnc(C(C)(C)C(F)(F)F)c1 showed an IC50 [1] greater than 10000 nM, an IC50 [2] greater than 10000 nM and an IC50 [3] of less than 31.6 nM. The IC50 [4] was less than 31.6 nM, the IC50 [5] was less than 31.6 nM and the IC50 [6] was less than 31.6 nM. The viability, T/C [7] was 81.8%, the viability, T/C [8] was 78.2% and the viability, T/C [9] was 103%. The viability, T/C [10] was 75%, the viability, T/C [11] was 93.5% and the viability, T/C [12] was 84.2%. The viability, T/C [13] was 70.8%, the viability, T/C [14] was 52.1% and the viability, T/C [15] was 71.5%. For the same compound, the viability, T/C [16] was 61.4%, the viability, T/C [17] was 83.7% and the viability, T/C [18] was 77.1%. The viability, T/C [19] was 27.3%, the viability, T/C [20] was 59.3% and the viability, T/C [21] was 46.2%. It also gave a viability, T/C [22] of 61.7%, a viability, T/C [23] of 75.8% and a viability, T/C [24] of 45.7%. It also gave a viability, T/C [25] of 26.3%, a viability, T/C [26] of 30.4% and a viability, T/C [27] of 24.8%. For the same compound, the viability, T/C [28] was 37.4%, the viability, T/C [29] was 23.9% and the viability, T/C [30] was 25.1%. The viability, T/C [31] was 18.9%, the viability, T/C [32] was 17.4% and the viability, T/C [33] was 12.7%. The viability, T/C [34] was 17.8%, the viability, T/C [35] was 14% and the viability, T/C [36] was 9.85%. For the same compound, the viability, T/C [37] was 9.39%, the viability, T/C [38] was 8.74% and the viability, T/C [39] was 8.22%. The viability, T/C [40] was 8.91%, the viability, T/C [41] was 8.18% and the viability, T/C [42] was 5.56%.
With `CC(C)NCC(C(=O)N1CCN(c2ncnc3c2C(C)CC3O)CC1)c1ccc(Cl)cc1` (configuration not stated) + CC(Nc1ncnc2nc[nH]c12)c1cc2cccc(Cl)c2c(=O)n1-c1ccccc1 the IC50 [1] was 4130 nM, the IC50 [2] was 6390 nM and the IC50 [3] was 3720 nM. The IC50 [4] was 4820 nM, the IC50 [5] was 4510 nM and the IC50 [6] was 775 nM. The viability, T/C [7] was 98.3%, the viability, T/C [8] was 102% and the viability, T/C [9] was 101%. For the same compound, the viability, T/C [10] was 76.7%, the viability, T/C [11] was 60% and the viability, T/C [12] was 24.4%. The viability, T/C [13] was 104%, the viability, T/C [14] was 88.9% and the viability, T/C [15] was 91.2%. For the same compound, the viability, T/C [16] was 102%, the viability, T/C [17] was 71.5% and the viability, T/C [18] was 36.3%. The viability, T/C [19] was 130%, the viability, T/C [20] was 88.7% and the viability, T/C [21] was 77.6%. The viability, T/C [22] was 67.7%, the viability, T/C [23] was 72.5% and the viability, T/C [24] was 26%. It also gave a viability, T/C [25] of 98.1%, a viability, T/C [26] of 93.9% and a viability, T/C [27] of 68.1%. The viability, T/C [28] was 80%, the viability, T/C [29] was 65.8% and the viability, T/C [30] was 30.6%. For the same compound, the viability, T/C [31] was 83.1%, the viability, T/C [32] was 84.8% and the viability, T/C [33] was 61.8%. It also gave a viability, T/C [34] of 74.2%, a viability, T/C [35] of 65.9% and a viability, T/C [36] of 18.4%. It also gave a viability, T/C [37] of 72.1%, a viability, T/C [38] of 69.6% and a viability, T/C [39] of 38.8%. For the same compound, the viability, T/C [40] was 59.3%, the viability, T/C [41] was 39.6% and the viability, T/C [42] was 14.9%.
In the case of `CCN1CCN(Cc2ccc(Nc3ncc(F)c(-c4cc(F)c5nc(C)n(C(C)C)c5c4)n3)nc2)CC1`, the viability, T/C (compound 0.00316 µM) is reported as 78.8% and 104% and 106%, the viability, T/C (compound 0.01 µM) is reported as 94.5% and 76.5% and 82.8% and the viability, T/C (compound 0.0316 µM) is reported as 61.7% and 67.7% and 78.4%. For the same compound, the viability, T/C (compound 0.1 µM) was 48.9% and 58.6% and 55.6%, the viability, T/C (compound 0.316 µM) was 47.7% and 44.3% and 50.4% and the viability, T/C (compound 1 µM) was 40.8% and 56.3% and 51.8%.
With `COc1c(OCCCN2CCOCC2)ccc2c3n(c(=NC(=O)c4cnc(N)nc4)nc12)CCN3` the viability, T/C (compound 0.0316 µM) was 29% [middle of 6 runs], the viability, T/C (compound 0.1 µM) was 15.8% [middle of 6 runs] and the viability, T/C (compound 0.316 µM) was 8.17% [middle of 6 runs]. The viability, T/C (compound 1 µM) was 4.83% [middle of 6 runs] and the IC50 (compound alone, run of 06/13/2023) was 13.3 nM [middle of 6 runs].
`Cn1nccc1Nc1nccc(-c2ccn(C(CO)c3ccc(Cl)c(F)c3)c(=O)c2)n1` (configuration not stated) + COc1c(OCCCN2CCOCC2)ccc2c3n(c(=NC(=O)c4cnc(N)nc4)nc12)CCN3 gave an IC50 (curve of first compound, second compound 0.00316 µM) of 238 nM, an IC50 (curve of first compound, second compound 0.01 µM) of 97.3 nM and an IC50 [1] of less than 31.6 nM. The IC50 [2] was less than 31.6 nM, the IC50 [3] was less than 31.6 nM and the IC50 [4] was less than 31.6 nM. For the same compound, the viability, T/C (second compound 0.00316 µM, first compound 0.0316 µM) was 70.2%, the viability, T/C (second compound 0.00316 µM, first compound 0.1 µM) was 56.1% and the viability, T/C (second compound 0.00316 µM, first compound 0.316 µM) was 47.6%. It also gave a viability, T/C (second compound 0.00316 µM, first compound 1 µM) of 32.4%, a viability, T/C (second compound 0.00316 µM, first compound 3.16 µM) of 34.9% and a viability, T/C (second compound 0.00316 µM, first compound 10 µM) of 13.1%. The viability, T/C (second compound 0.01 µM, first compound 0.0316 µM) was 64.3%, the viability, T/C (second compound 0.01 µM, first compound 0.1 µM) was 48.8% and the viability, T/C (second compound 0.01 µM, first compound 0.316 µM) was 38.8%. The viability, T/C (second compound 0.01 µM, first compound 1 µM) was 26.3%, the viability, T/C (second compound 0.01 µM, first compound 3.16 µM) was 22.4% and the viability, T/C (second compound 0.01 µM, first compound 10 µM) was 14.3%. For the same compound, the viability, T/C [7] was 31.7%, the viability, T/C [8] was 28.7% and the viability, T/C [9] was 17.7%. It also gave a viability, T/C [10] of 17.9%, a viability, T/C [11] of 17.3% and a viability, T/C [12] of 9.88%. The viability, T/C [13] was 17.7%, the viability, T/C [14] was 13.6% and the viability, T/C [15] was 10.8%. The viability, T/C [16] was 8.53%, the viability, T/C [17] was 5.16% and the viability, T/C [18] was 1.19%. It also gave a viability, T/C [19] of 9.14%, a viability, T/C [20] of 5.37% and a viability, T/C [21] of 3.27%. For the same compound, the viability, T/C [22] was 2.55%, the viability, T/C [23] was 0.85% and the viability, T/C [24] was 0.46%. It also gave a viability, T/C [25] of 4.18%, a viability, T/C [26] of 2.97% and a viability, T/C [27] of 1.36%. The viability, T/C [28] was 1.15%, the viability, T/C [29] was 0.78% and the viability, T/C [30] was 0.48%.
